# Where two headings read alike, the source gives them in different places.
# Legend:
# [1] = target: KRAS-G12C/SOS1 interaction (Homo sapiens (Human), UniProt Q07889); assay: Protein-Protein Interaction (PPI) assay, SOS1-KRAS binding assay kit (HTRF)
# Description: This Example illustrates that exemplary compounds of the present invention blockade the interaction of SOS1 to KRAS protein.
# The ability of a compound of Formula (I) to block the interaction of SOS1 to KRAS was measured using a SOS1-KRAS binding assay kit (CAT #63ADK000CB16PEG, Cisbio). Utilizing HTRF (Homogeneous Time-resolved Fluorescence) technology, the assay enables simple and rapid characterization of compound and antibody blockers in a high throughput format. The interaction between Tag1-SOS1 and Tag2-KRAS-G12C is detected by using anti-Tag1-Terbium antibody (HTRF donor) and anti-Tag2-XL665 antibody (HTRF acceptor). When the donor and acceptor antibodies are brought into close proximity due to SOS1 and KRAS-G12C binding, excitation of the donor antibody triggers fluorescent resonance energy transfer (FRET) towards the acceptor antibody, which in turn emits specifically at 665 nm. This specific signal is directly proportional to the extent of KRAS-G12C/SOS1 interaction.
# The assay was carried according to the manufacturer's instructions. Compounds at an initial concentration of 10 mM in DMSO were first serially diluted on a 384-well plate using assay buffer at a ratio of 1:3 for a total of 9 concentrations with each of a volume of 20 μL. Blank buffer was included as the negative control. The final compound solution was in the buffer solution with 1% DMSO. Then, in each well of a 384-well plate, a solution of 2 μL compound solution, 4 μL tagged SOS1 and KRAS (G12C) protein stocks, respectively, and 10 μM GTP was incubated for 15 min. 10 μL mixture of […] antibody and anti-Tag1-Terbium antibody was introduced to each individual well. After 2 hours incubation at room temperature, fluorescence readout was measured with a Pelkin Elmer multiple plate reader VICTOR Nivo.
# Excitation was from over a range of 245-395 nm, and emission from the donor (emission 1) was detected at […] and emission from the acceptor (emission 2) was detected at (606.5-623.5) nm. The HTRF ratio was calculated using the formula: (emission 1 @665 nm/emission 2 @620 nm)×10000. Thus, compounds blocking KRAS-G12C/SOS1 interaction will cause a reduction in HTRF signal ratio. The IC50 values were then calculated with the Graph pad Prism software.
# [2] = test system: pERK in Hela cells; assay: Phospho-ERK (p-ERK) assay in Hela cells; format: cell-based; settings: Homo sapiens, β-actin normalized
# Description: This Example illustrates that exemplary compounds of the present invention prevent KRas-mediated GTP nucleotide exchange mediated by SOS1 to inhibit KRas activity, thereby inhibiting the generation of the downstream effector pERK.
# Hela cells (23,000/w) were seeded in a black clear flat bottom 96-well cell culture plate (Corning, #3904) and incubated at 37° C. overnight. At day 2, cells were dosed with compounds of Formula (I) with a 10 μM starting concentration and serially diluted 3× for a total of 9 concentrations. The cells were incubated for 1 hour with the compounds solubilized in DMSO at 37° C. Cells were immediately fixed by adding 100 μL of 8% formaldehyde to all wells in a fume hood and the plates were incubated for 1 hr at room temperature. The formaldehyde was discarded from the plates and washed 5 times and each time for 5 min with 200 μL of Triton Washing Solution (0.1% Triton in PBS) each time to permeabilize the cells. Cells were then blocked with 150 μL of Odyssey blocking buffer (LI-COR Biosciences #927-50010) at room temperature on a shaker. The blocking buffer was discarded and 50 μL of primary antibodies pERK (cell signaling Technology #4370; Rabbit, 1:500) and β-actin (AF5001; Mouse, 1:2000) diluted in Odyssey blocking buffer was added. The plates were incubated overnight at 4° C. on a shaker.
# On day 3, the primary antibody solution was removed. Each plate was washed 5× times with 200 μL of 1×PBST (PBS+0.1% Tween 20) and incubated with 50 μL of secondary antibodies: Anti-Rabbit (LI-COR Biosciences #926-32211) and Anti-Mouse (LI-COR Biosciences #68070) at 1:1000 dilution in Odyssey blocking buffer at room temperature on a shaker for 1 hour (protected from light). The secondary antibody solution as removed and each plate was washed with PBST 5× times. Any liquid remaining was discarded and the plate was imaged using the Licor Odyssey machine according to the manufacturer's instruction, using a set focus length at 3.5 mm and both 800 nm and 700 nm filters. The 3-actin normalized scan values for each well were divided by the average of vehicle wells to get the % of p-ERK inhibition. The IC50 values were then calculated with the Graph pad Prism software. In general, p-ERK IC50 data are in line with the PPI IC50 data.
# KRAS-G12C/SOS1 interaction, sequence (Q07889 whole entry, stated change not applied): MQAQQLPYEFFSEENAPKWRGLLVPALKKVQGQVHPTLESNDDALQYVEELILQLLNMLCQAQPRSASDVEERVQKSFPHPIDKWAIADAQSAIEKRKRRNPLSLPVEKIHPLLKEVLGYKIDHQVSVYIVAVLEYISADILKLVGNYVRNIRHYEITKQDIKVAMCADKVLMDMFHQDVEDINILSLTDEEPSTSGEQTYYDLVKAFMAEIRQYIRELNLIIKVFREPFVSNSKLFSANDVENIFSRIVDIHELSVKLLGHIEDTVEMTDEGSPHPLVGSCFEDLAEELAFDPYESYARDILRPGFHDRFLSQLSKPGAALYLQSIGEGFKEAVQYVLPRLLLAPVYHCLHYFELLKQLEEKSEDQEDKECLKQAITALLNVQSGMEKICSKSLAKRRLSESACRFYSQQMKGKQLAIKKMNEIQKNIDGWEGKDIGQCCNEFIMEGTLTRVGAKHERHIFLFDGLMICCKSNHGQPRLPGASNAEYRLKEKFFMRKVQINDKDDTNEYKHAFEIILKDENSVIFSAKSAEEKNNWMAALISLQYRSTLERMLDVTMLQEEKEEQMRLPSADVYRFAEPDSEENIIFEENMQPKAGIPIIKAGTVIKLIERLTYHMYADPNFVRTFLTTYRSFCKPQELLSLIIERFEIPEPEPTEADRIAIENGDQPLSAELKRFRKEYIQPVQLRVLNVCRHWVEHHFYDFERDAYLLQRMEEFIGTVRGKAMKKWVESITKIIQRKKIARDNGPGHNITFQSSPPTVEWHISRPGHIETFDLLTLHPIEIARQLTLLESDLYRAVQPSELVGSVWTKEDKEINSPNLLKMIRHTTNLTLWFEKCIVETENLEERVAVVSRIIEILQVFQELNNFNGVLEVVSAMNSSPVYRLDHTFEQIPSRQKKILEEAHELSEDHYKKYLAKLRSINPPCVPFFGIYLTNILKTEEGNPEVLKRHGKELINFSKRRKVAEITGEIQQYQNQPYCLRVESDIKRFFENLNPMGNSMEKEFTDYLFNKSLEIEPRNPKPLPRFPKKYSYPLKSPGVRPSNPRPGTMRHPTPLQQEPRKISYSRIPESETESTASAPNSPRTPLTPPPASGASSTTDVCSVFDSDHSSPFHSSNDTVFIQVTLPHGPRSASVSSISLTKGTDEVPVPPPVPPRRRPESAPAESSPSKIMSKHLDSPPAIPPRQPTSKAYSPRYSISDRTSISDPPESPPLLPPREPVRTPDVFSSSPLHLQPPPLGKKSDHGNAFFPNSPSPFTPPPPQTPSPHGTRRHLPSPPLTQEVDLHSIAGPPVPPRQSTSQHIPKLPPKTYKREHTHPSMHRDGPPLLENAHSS
Compound,IC50 [1] [nM],"IC50 ([2]; Table 2, 1 hour with compound) [nM]",IC50 ([1]; read-out: PPI Assay IC50) [nM],"IC50 ([2]; Table 1, 1 hour with compound) [nM]"
"CCOC(=O)c1cc2c(N[C@H](C)c3cc(N)cc(C(F)(F)F)c3)nc(C)nc2n2ncnc12 [Example 1, Ethyl (R)-6-((1-(3-amino-5-(trifluoromethyl)phenyl)ethyl)amino)-8-methyl-[1,2,4]triazolo[1′,5′:1,6]pyrido[2,3-d]pyrimidine-4-carboxylate]",> 100,> 100,–,–
"Cc1nc(N[C@H](C)c2cc(N)cc(C(F)(F)F)c2)c2cc(C(=O)N3CCOCC3)c3ncnn3c2n1 [Example 2, (R)-(6-((1-(3-amino-5-(trifluoromethyl)phenyl)ethyl)amino)-8-methyl-[1,2,4]triazolo[1′,5′:1,6]pyrido[2,3-d]pyrimidin-4-yl)(morpholino)methanone]",–,–,< 100,> 100
Cc1nc(N[C@H](C)c2cc(N)cc(C(F)(F)F)c2)c2cc(C(=O)N3CCN(C)CC3)c3ncnn3c2n1 [Example 3],–,–,< 100,< 100
COCCN1CCN(C(=O)c2cc3c(N[C@H](C)c4cc(N)cc(C(F)(F)F)c4)nc(C)nc3n3ncnc23)CC1 [Example 4],–,–,< 100,> 100
Cc1nc(N[C@H](C)c2cc(N)cc(C(F)(F)F)c2)c2cc(C(=O)N3CCN(CCO)CC3)c3ncnn3c2n1 [Example 5],–,–,< 100,> 100
Cc1nc(N[C@H](C)c2cc(N)cc(C(F)(F)F)c2)c2cc(C(=O)N3CC4(COC4)C3)c3ncnn3c2n1 [Example 6],–,–,< 100,< 100
Cc1nc(N[C@H](C)c2cccc(C(F)F)c2F)c2cc(C(=O)N3CCOCC3)c3ncnn3c2n1 [Example 11],–,–,< 100,> 100
Cc1nc(N[C@H](C)c2cccc(C(F)F)c2F)c2cc(C(=O)N3[C@@H](C)COC[C@@H]3C)c3ncnn3c2n1 [Example 13],–,–,< 100,< 100
Cc1nc(N[C@H](C)c2cccc(C(F)F)c2F)c2cc(C(=O)N3CCSCC3)c3ncnn3c2n1 [Example 17],–,–,< 100,> 100
Cc1nc(N[C@H](C)c2cccc(C(F)F)c2F)c2cc(C(=O)N3CCS(=O)(=O)CC3)c3ncnn3c2n1 [Example 18],–,–,< 100,> 100
Cc1nc(N[C@H](C)c2cccc(C(F)F)c2F)c2cc(C(=O)N3CCN(C)CC3)c3ncnn3c2n1 [Example 19],–,–,< 100,> 100
CC(=O)N1CCN(C(=O)c2cc3c(N[C@H](C)c4cccc(C(F)F)c4F)nc(C)nc3n3ncnc23)CC1 [Example 20],–,–,< 100,> 100
Cc1nc(N[C@H](C)c2cccc(C(F)F)c2F)c2cc(C(=O)N3CCN(C(=O)N(C)C)CC3)c3ncnn3c2n1 [Example 21],–,–,< 100,> 100
Cc1nc(N[C@H](C)c2cccc(C(F)F)c2F)c2cc(C(=O)N3CCN(CCO)CC3)c3ncnn3c2n1 [Example 23],–,–,< 100,> 100
Cc1nc(N[C@H](C)c2cccc(C(F)F)c2F)c2cc(C(=O)N3CCN(C4COC4)CC3)c3ncnn3c2n1 [Example 24],–,–,< 100,> 100
Cc1nc(N[C@H](C)c2cccc(C(F)F)c2F)c2cc(C(=O)N3CC4(COC4)C3)c3ncnn3c2n1 [Example 27],–,–,< 100,< 100
Cc1nc(N[C@H](C)c2cccc(C(F)F)c2F)c2cc(C(=O)N3C[C@H]4COC[C@H]4C3)c3ncnn3c2n1 [Example 29],–,–,< 100,< 100
Cc1nc(N[C@H](C)c2cccc(C(F)F)c2F)c2cc(C(=O)N3CCCC34CCOC4)c3ncnn3c2n1 (some centres unmarked) [Example 31],–,–,< 100,> 100
Cc1nc(N[C@H](C)c2cccc(C(F)F)c2F)c2cc(C(=O)N3CCC4(COC4)C3)c3ncnn3c2n1 [Example 33],–,–,< 100,> 100

Compound,IC50 [1] [nM],"IC50 ([2]; Table 2, 1 hour with compound) [nM]",IC50 ([1]; read-out: PPI Assay IC50) [nM],"IC50 ([2]; Table 1, 1 hour with compound) [nM]"
Cc1nc(N[C@H](C)c2cccc(C(F)F)c2F)c2cc(C(=O)N3CC4CC(C3)O4)c3ncnn3c2n1 [Example 35],–,–,< 100,> 100
Cc1nc(N[C@H](C)c2cccc(C(F)F)c2F)c2cc(C(=O)N3C4CCC3CN(C)C4)c3ncnn3c2n1 [Example 37],–,–,< 100,> 100
Cc1nc(N[C@H](C)c2cccc(C(F)(F)F)c2C)c2cc(C(=O)N3CC4(COC4)C3)c3ncnn3c2n1 [Example 38],–,–,< 100,> 100
Cc1nc(N[C@H](C)c2cccc(C(F)(F)F)c2F)c2cc(C(=O)N3CC4(COC4)C3)c3ncnn3c2n1 [Example 39],–,–,< 100,> 100
C[C@@H](Nc1ncnc2c1cc(C(=O)N1CC3(COC3)C1)c1ncnn12)c1cccc(C(F)F)c1F [Example 42],–,–,< 100,> 100
C[C@@H](Nc1ncnc2c1cc(C(=O)N1C3CC1CN(C)C3)c1ncnn12)c1cccc(C(F)F)c1F [Example 47],–,–,< 100,> 100
CC(=O)N1CC=C(c2cc3c(N[C@H](C)c4cccc(C(F)F)c4F)nc(C)nc3n3c(C)nnc23)CC1 [Example 104],–,–,< 100,–
C[C@@H](Nc1ncnc2c1cc(C1(O)CCS(=O)(=O)CC1)c1nncn12)c1cccc(C(F)F)c1F [Example 110],–,–,< 100,–
CC(=O)N1CCC(O)(c2cc3c(N[C@H](C)c4cccc(C(F)F)c4F)nc(C)nc3n3c(C)nnc23)CC1 [Example 111],–,–,< 100,–
COC1(c2cc3c(N[C@H](C)c4cc(N)cc(C(F)(F)F)c4)ncnc3n3nnnc23)CCN(C(C)=O)CC1 [Example 126],–,–,< 100,–
CC(=O)N1CCC(C)(c2cc3c(N[C@H](C)c4cccc(C(F)F)c4F)ncnc3n3cnnc23)CC1 [Example 128],–,–,< 100,–
"[2H]C([2H])([2H])OC1(c2cc3c(N[C@H](C)c4cccc(C(F)F)c4F)ncnc3n3cnnc23)CCN(C(C)=O)CC1 [Example 133, (R)-1-(4-(4-((1-(3-(difluoromethyl)-2-fluorophenyl)ethyl)amino)-[1,2,4]triazolo[4′,3′:1,6]pyrido[2,3-d]pyrimidin-6-yl)-4-(methoxy-d3)piperidin-1-yl)ethan-1-one]",–,–,< 100,–
"CC(=O)NC1(c2cc3c(N[C@H](C)c4cccc(C(F)F)c4F)ncnc3n3cnnc23)CCN(C(C)=O)CC1 [Example 134, (R)—N-(1-acetyl-4-(4-((1-(3-(difluoromethyl)-2-fluorophenyl)ethyl)amino)-[1,2,4]triazolo[4′,3′:1,6]pyrido[2,3-d]pyrimidin-6-yl)piperidin-4-yl)acetamide]",–,–,< 100,–
Cc1nc(N[C@H](C)c2cccc(C(F)F)c2F)c2cc(C3CCSCC3)c3nncn3c2n1 [Example 138],–,–,< 100,–
CC(=O)N1CCC(c2cc3c(N[C@H](C)c4cccc(C(F)F)c4F)nc(C)nc3n3cnnc23)CC1(C)C (some centres unmarked) [Example 139],–,–,< 100,–
CC(=O)N1CCC(c2cc3c(N[C@H](C)c4cccc(C(F)F)c4F)nc(C)nc3n3c(C)nnc23)CC1 [Example 141],> 100,–,–,–
Cc1nc(N[C@H](C)c2cccc(C(F)F)c2F)c2cc(C3CCN(S(C)(=O)=O)CC3)c3nnnn3c2n1 [Example 143],–,–,< 100,–
COCC(=O)N1CCC(c2cc3c(N[C@H](C)c4cccc(C(F)F)c4F)nc(C)nc3n3nnnc23)CC1 [Example 144],–,–,< 100,–

# — patent US20250230159A1, “FUSED HETEROCYCLIC COMPOUNDS AS MODULATORS OF RAS SIGNALLING” (Shenzhen Ionova Life Science Co., Ltd., priority 2022, published 2025)
